The values below come from US20230192701A1, “BICYCLIC KINASE INHIBITORS AND USES THEREOF” (iOmx Therapeutics AG, priority 2020, published 2023).

What is called kinetic solubility is solubility judged after dilution from a stock solution rather than from solid. By half-life is commonly meant the time in which the quantity being followed falls by half. Low readings indicate rapid decline, high ones slow decline. The efflux ratio is a quotient of directional permeabilities that is used to spot active efflux.

One series addresses SIK2 (Homo sapiens, UniProt Q9H0K1). As to the kind of experiment: radiometric protein kinase assay (33PanQinase Activity Assay), SIK2. In kind it is biochemical. To be noted: for IC50: ATP 1.0 μM, substrate RBER-CHKtide; for inhibiting SIK2 compared to PY1: in words. The procedure: (§1) The IC50s of the compounds against the SIK family of protein-serine/threonine kinases (SIK2 and SIK3) were determined as followed. Briefly, a radiometric protein kinase assay (33PanQinase® Activity Assay) was used for measuring the kinase activity of the two protein kinases. The kinase assays were performed in 96-well FlashPlates™ from PerkinElmer (Boston, Mass., USA) in a 50 uL reaction volume. The reaction cocktail was pipetted in four steps in the following order: • […] (standard buffer/[gamma-33P]-ATP) • 10 uL of ATP solution (in water) • 5 uL of test compound (in 10% DMSO) • 20 uL enzyme/substrate mix
(§2) The following amounts of enzyme and applicable substrate were used per well:
(§3) The reaction cocktails were incubated at 30 °C for 60 minutes. The reaction was stopped with 50 uL of 2% (v/v) H3PO4, plates were aspirated and washed two times with 200 μL 0.9% (w/v) NaCl. Incorporation of 33Pi was determined with a microplate scintillation counter (Microbeta, Wallac). All assays were performed with a BeckmanCoulter/SAGIAN™ Core System.

The next series concerns the target SIK3 (Homo sapiens, UniProt Q9Y2K2). As to the kind of experiment: radiometric protein kinase assay (33PanQinase Activity Assay), SIK3. In kind it is biochemical. As to conditions: for IC50: ATP 1.0 μM, substrate RBER-CHKtide; for inhibiting SIK3 compared to PY1: in words. The procedure:
as §1, §2, §3

Another series concerns MC38 tumour cells. As to the kind of experiment: TNF-sensitised cell viability assay (CellTiter-Glo), MC38. In kind it is cell-based, murine. To be noted: Mus musculus, MC-38, read-out: MC38 IC50 (at 100 ng/ml rMuTNF); 100 ng/ml rMuTNF, 72 h. As for the experimental part:
(§4) Cell viability of HCT116 tumour cells was measured using the CellTiter-Glo (CTG) luminescent cell viability assay (Promega, Madison, USA) according to the manufacturer's protocol. In short, 1×10^3 HCT116 cells were seeded in a 384-well plate for 24 h and subsequently treated with different concentrations of compounds and 10 ng/ml rHuTNF for 72 h at 37° C. and 5% CO2. After incubation, CTG reagent was added to the wells and cells were lysed for 10 min. Read-out was performed using the Tecan reader with 0.1 sec counting time. TNF-induced cell killing in human PANC1 and murine MC38 tumour cells was measured analogously to the assay in human HCT116 cells, except that for the PANC1 assay 100 ng/ml rHuTNF and for the MC38 assay 100 ng/ml rMuTNF were used.

Another series in a line: Kinetic solubility assay. In kind it is physicochemical. As to conditions: aqueous buffer, kinetic from dmso stock; PBS buffer pH 7.4, 1.0% DMSO, 24 h at RT. As for the experimental part:
The Kinetic solubility assay was conducted as follows. 4 uL compound of the 50 mM DMSO stock was added to deep well plate containing 396 uL PBS buffer (pH 7.4). The DMSO content in the sample was 1.0%, and the compound concentration 500 μM. The sample plate was vortexed at 800 rpm for 24 h at RT on a thermomixer. At the end of the incubation period, the sample plate was centrifuged at 4000 rpm for 10 mins. 3 uL of supernatant was transferred to well containing 297 uL of ISTD in Acetonitrile water:50:50, v/v and analysed in LC-MS/MS against a calibration curve (CC).

Series [1] is described as follows: Human liver microsomal stability. In kind it is in vitro ADME. To be noted: pH 7.4; human liver microsomes, NADPH, 37°C. As for the experimental part:
(§5) Briefly, human and liver microsomal stability was determined by pre-incubation of 2.5 uL compound and 75 uL of the respective liver microsomes in potassium phosphate buffer (pH 7.4) at 37° C. After adding of NADPH as cofactor and further incubation at 37° C. for 60 min, acetonitrile containing internal standard was added, and the sample was vortexed for 5 min at 1200 rpm and then centrifuged 10 min at 4000 rpm.
(§6) LC-MS/MS was performed for all assays using a C18 column (50*4.6 mm, 5 um) for the CaCo2 assay, or a C18 column (50*4.6 mm, 4 um) for the other assays. The mobile phases used were 10 mM Ammonium Acetate with 0.1% Formic acid (aqueous) and 100% Acetonitrile (organic).
A general note: Liver microsomes are a subcellular fraction often used to study metabolism.

The nature of series [2]: Mouse liver microsomal stability. To be noted: pH 7.4; mouse liver microsomes, NADPH, 37°C. Type of series: in vitro ADME. The procedure: as §5, §6
Series [3] in a line: Human hepatocyte stability. In kind it is in vitro ADME. As to conditions: human hepatocytes, 37°C. The procedure: (§7) Determination of human and mice hepatocyte stability was conducted as follows. 200 uL of the respective hepatocyte cell suspension (2×10e6/ml) was preincubated at 37° C. for 10 min. Then, 200 uL of a 2 uM working stock of the test compound was added to the hepatocyte cell suspension, and the mixture was further incubated at 37° C. and 500 rpm. The reaction was stopped at 30, 60 and 120 min by precipitating 50 uL of the incubation mixture with 200 uL of acetonitrile. Samples were vortexed for 5 min at 1200 rpm and centrifuged at 4000 rpm for 10 min. Intrinsic clearance and half-life were analysed using LC-MS/MS.
as §6

Series [4] can be described thus: Mouse hepatocyte stability. In kind it is in vitro ADME. To be noted: mouse hepatocytes, 37°C. As for the experimental part:
as §7, §6

A short description of series [5]: Human plasma-protein binding (RED method). Type of series: in vitro ADME. The procedure: (§8) Human and mice protein plasma binding was determined using the Plasma Protein Binding by RED Method. Briefly, 200 uL of the respective plasma containing the test compound (10 uM) was spiked into the donor well (RED Chamber) of the insert. 350 uL of PBS was spiked into receiver well (white chamber). The plate was incubated at 37° C. in a thermomixer at 400 rpm for 5 hours. The samples were matrix equilibrated with opposite matrix (25 uL blank buffet/Plasma). Matrix matched samples were precipitated with 200 uL of Acetonitrile containing Internal standard. Samples were vortexed at 1000 rpm for 5 min and centrifuged at 4000 rpm for 10 min. The supernatant was diluted 2 folds with water and % bound and unbound protein and % recovery at 5 h was determined by LC-MS/MS.
as §6

A short description of series [6]: Murine plasma protein binding (RED method). In kind it is in vitro ADME. To be noted: mouse. The procedure:
as §8, §6

A short description of series [7]: CaCo2 permeability and efflux assay. Type of series: in vitro ADME. To be noted: human, Caco-2; CaCo2, mean efflux ratio. The procedure: (§9) To determine apparent permeability of the compounds an assay using a Caco-2 cells monolayer (cultured for 21d) in a 24-well format (poly carbonate high pore density plate with 0.4 μm pore size and a 0.7 cm2 active membrane area; Millipore) was performed as followed. 800 uL of DMEM was added to the basal compartment of the 24 well-plate and 60000 CaCo2 cells/well were seeded in the apical wells and incubated in a CO2 incubator at 37° C. for proliferation of cells. Apical to Basal permeability was determined by adding 400 uL of test compound to the apical well and 800 uL of HBSS buffer with 2% BSA to the basal well. 25 uL of basal sample was collected after 120 min and processed as stated below. Basal to Apical permeability was determined by adding 800 uL of test compound to basal well and 400 uL of HBSS buffer with 2% BSA to apical well. 25 uL of apical sample was collected after 120 min and processed as stated below. The samples were processed by diluting the donor samples 1:1 with HBSS containing 2% BSA and the receiver samples 1:1 with HBSS buffer. Samples were then precipitated with 200 uL of acetonitrile containing internal standard, vortexed for 5 min at 1000 rpm, and centrifuged at 4000 rpm for 20 min. 150 uL of supernatant was diluted with 150 uL of water and submitted for LC-MS/MS analysis, and Bi-directional (A-B and B-A) apparent permeability (Papp) was calculated.
as §6
On the technique in general: Caco-2 monolayers are a common model of the intestinal barrier.

Another series deals with Caco-2 cells monolayer. As to the kind of experiment: CaCo2 permeability and efflux assay. Type of series: in vitro ADME. As to conditions: CaCo2, apical to basal, 120 min. The procedure: as §9, §6
For series [8], the target named is 335 wild-type protein kinases. As to the kind of experiment: single-point inhibition assays, residual activity (ProQinase Kinase Profiler). In kind it is biochemical. To be noted: single-point 0.1 uM and 1 uM, 335 kinases. The procedure: Several compounds of Formula (I) described herein were also tested in single-point (0.1 uM and 1 uM) inhibition assays over a diverse set of 335 wild-type protein (ProQinase “Kinase Profiler”; ProQinase, Freiburg, Germany), in which the residual activity of each kinase was determined. […] Secondly, the residual activity of each kinase was compared to other compounds tested (in particular, against the prior art compounds PY1) by use of scatter plots.

A further series concerns HCT116 and PANC1. As to the kind of experiment: toxicity against the cell lines in the absence of TNF. In kind it is cell-based. As to conditions: 0 ng/mL TNF, up to concentrations of 10 uM. The procedure: Typically, those compounds of Formula (I) tested were less toxic against the cell lines than the prior art compound PY1 when tested (eg, in the absence of TNF), especially against the human cell lines such as HCT116 (data not shown).
as §4

SMILES strings stand for the structures. In brackets after ≈: the same amount, converted by molar mass. Entries after “also recorded” stand apart in the source; their conditions may differ. Where only a bound is given, the exact number is not on record here.

Chain of SIK2 (Q9H0K1 whole entry): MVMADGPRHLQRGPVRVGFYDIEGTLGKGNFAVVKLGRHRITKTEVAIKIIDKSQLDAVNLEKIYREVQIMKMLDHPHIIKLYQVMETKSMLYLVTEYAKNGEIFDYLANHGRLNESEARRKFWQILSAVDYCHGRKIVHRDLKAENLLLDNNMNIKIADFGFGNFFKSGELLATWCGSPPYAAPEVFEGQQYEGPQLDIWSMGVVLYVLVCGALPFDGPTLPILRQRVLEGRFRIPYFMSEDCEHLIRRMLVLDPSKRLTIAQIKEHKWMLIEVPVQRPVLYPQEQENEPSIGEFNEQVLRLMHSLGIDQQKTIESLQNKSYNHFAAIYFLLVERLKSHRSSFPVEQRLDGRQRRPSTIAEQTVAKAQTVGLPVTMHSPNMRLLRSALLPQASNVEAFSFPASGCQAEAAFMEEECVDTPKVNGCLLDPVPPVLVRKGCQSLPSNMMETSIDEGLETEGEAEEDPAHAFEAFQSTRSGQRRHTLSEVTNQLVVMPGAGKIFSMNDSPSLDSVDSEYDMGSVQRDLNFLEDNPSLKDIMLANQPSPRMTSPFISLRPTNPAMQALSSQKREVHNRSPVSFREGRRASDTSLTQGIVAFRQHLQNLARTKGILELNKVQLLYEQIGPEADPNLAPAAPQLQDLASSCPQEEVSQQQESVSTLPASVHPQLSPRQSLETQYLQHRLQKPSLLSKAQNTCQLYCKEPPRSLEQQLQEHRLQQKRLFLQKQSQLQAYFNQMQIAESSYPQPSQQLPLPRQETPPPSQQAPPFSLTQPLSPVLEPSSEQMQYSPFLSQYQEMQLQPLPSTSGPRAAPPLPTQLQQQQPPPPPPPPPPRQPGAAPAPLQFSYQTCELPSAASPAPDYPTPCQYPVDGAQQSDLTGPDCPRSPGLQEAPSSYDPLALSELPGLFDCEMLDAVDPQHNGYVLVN
Chain of SIK3 (Q9Y2K2 whole entry): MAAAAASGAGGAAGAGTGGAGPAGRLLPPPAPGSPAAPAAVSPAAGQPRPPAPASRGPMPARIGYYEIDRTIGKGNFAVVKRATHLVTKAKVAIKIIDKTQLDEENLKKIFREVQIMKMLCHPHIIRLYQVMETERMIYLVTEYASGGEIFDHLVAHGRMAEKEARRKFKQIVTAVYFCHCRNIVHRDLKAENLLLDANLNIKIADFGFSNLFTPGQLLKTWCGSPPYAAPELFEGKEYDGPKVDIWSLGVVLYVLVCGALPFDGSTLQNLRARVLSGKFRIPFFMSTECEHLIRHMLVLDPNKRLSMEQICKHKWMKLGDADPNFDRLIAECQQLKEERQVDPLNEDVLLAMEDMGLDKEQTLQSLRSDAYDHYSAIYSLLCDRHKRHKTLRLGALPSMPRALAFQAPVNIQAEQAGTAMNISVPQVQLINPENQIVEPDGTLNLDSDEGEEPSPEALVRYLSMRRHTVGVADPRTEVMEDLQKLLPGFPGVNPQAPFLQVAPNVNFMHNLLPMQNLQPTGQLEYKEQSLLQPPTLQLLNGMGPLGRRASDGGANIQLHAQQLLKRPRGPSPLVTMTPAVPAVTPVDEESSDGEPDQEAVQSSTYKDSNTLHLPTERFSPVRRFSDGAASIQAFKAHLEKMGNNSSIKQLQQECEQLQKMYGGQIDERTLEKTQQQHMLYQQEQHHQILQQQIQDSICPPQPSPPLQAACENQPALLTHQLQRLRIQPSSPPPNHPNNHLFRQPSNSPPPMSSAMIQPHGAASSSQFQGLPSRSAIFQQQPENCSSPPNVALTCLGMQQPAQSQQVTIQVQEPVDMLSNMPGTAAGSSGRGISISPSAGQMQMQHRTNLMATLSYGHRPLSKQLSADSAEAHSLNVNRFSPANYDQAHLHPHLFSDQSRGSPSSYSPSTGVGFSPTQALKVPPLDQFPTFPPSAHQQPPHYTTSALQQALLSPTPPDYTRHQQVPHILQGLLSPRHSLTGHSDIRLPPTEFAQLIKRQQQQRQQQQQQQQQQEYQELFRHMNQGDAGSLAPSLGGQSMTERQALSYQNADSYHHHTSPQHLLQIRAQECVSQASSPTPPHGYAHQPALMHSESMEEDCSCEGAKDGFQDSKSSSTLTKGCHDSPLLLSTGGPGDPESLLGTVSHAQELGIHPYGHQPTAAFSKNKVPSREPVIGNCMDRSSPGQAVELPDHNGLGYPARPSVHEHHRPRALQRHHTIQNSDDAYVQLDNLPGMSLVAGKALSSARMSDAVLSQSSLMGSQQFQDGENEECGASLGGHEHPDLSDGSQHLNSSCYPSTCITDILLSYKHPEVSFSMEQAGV

For the compound `COc1ccc(N2C(=O)N(c3c(C(F)F)csc3Cl)Cc3cnc(Nc4ccc(C5CCN(C)CC5)cc4)nc32)nc1` [AA2, 3-(2-chloro-4-(difluoromethyl)thiophen-3-yl)-l-(5-methoxypyridin-2-yl)-7-((4-(l-methylpiperidin-4-yl)phenyl)amino)-3,4-dihydropyrimido[4,5-d]pyrimidin-2(1H)-one], the IC50 was < 50 nM on SIK2, < 50 nM against SIK3 and 500 to 1000 nM in the series with MC38 tumour cells. Moreover, the “inhibiting SIK2 compared to PY1” value at SIK2 was “superior in inhibiting SIK2 and SIK3 compared to PY1”. Further, the “inhibiting SIK3 compared to PY1” value against SIK3 was “superior in inhibiting SIK2 and SIK3 compared to PY1”. In “Kinetic solubility assay”, the solubility (kinetic) at 24 h worked out at 9.1 µM (≈ 5.57 µg/mL). Besides, the values for the half-life in series [1] and in series [2] were 12 min and 10 min, respectively. Besides, the half-life at 1 uM in series [3] is 186 min; in series [4], 82 min. Moreover, the results for the recovery at 5 h, 10 uM in series [5] and in series [6] were 32% and 38%, respectively. Further, the efflux ratio at 120 min in series [7] is 2.7. Also, the “A > B(10 EE-06 cm/s)” value with Caco-2 cells monolayer is listed as 12.9 10 EE-06 cm/s.
With `COc1ccc(N2C(=O)N(c3c(CF)csc3Cl)Cc3cnc(Nc4ccc(C5CCN(C)CC5)cc4)nc32)nc1` [AA3, 3-(2-chloro-4-(fluoromethyl)thiophen-3-yl)-l-(5-methoxypyridin-2-yl)-7-((4-(l-methylpiperidin-4-yl)phenyl)amino)-3,4-dihydropyrimido[4,5-d]pyrimidin-2(1H)-one], the IC50 against SIK2 is < 50 nM; on SIK3, < 50 nM; in the series with MC38 tumour cells it was 500 to 1000 nM. Also, at SIK2, the “inhibiting SIK2 compared to PY1” value is “superior in inhibiting SIK2 and SIK3 compared to PY1”. Also, at SIK3, the “inhibiting SIK3 compared to PY1” value is “superior in inhibiting SIK2 and SIK3 compared to PY1”. Further, the “kinases inhibited less strongly than by PY1” value in series [8] is “SRMS, NLK, RIPK5, LTK and ALK”. The “kinases inhibited more strongly than by PY1” value in series [8] was “TAOK2, SYK, TYRO3, ACVR2B, MEKK2, AXL, ITK, MAP3K11, TRKA, MERTK, ZAP70, and MEKK2, and in particular CSF1R, HCK, TXK, YES, LCK, SRC, EPHA1 and FGR”. For the same compound, the “overall kinase profile compared to prior art compound PY1” value in series [8] was “potent inhibitor of surprisingly more kinases than prior art compound PY1”. For the same compound, the kinetic solubility at 24 h in the series “Kinetic solubility assay” amounted to 9.1 µM (≈ 5.41 µg/mL). The half-life in [1] was 16 min; in series [2], 20 min. Besides, the half-life at 1 uM was 42 min in series [3] and 108 min in series [4]. Further, the recovery at 5 h, 10 uM was determined as 34% in series [5] and 45% in [6]. The efflux ratio at 120 min in [7] is 2.9. Also, the “A > B(10 EE-06 cm/s)” value with Caco-2 cells monolayer is listed as 8.4 10 EE-06 cm/s.
On SIK2, `COc1ccc(N2C(=O)N(c3c(C)noc3C)Cc3cnc(Nc4ccc(C5CCN(C)CC5)cc4OC)nc32)nc1` [AA5, 3-(3,5-dimethylisoxazol-4-yl)-7-((2-methoxy-4-(1-methylpiperidin-4-yl)phenyl)amino)-1-(5-methoxypyridin-2-yl)-3,4-dihydropyrimido[4,5-d]pyrimidin-2(1H)-one] returned an IC50 of 400 to 800 nM. For the same compound, at SIK3, the IC50 fell in the range of 800 to 1000 nM. In addition, in series [8], the “kinases inhibited less strongly than by PY1” value was “FYN, BTK, EPHB2, LCK and CSK”; the “overall kinase profile compared to prior art compound PY1” value is listed as “potently inhibited far fewer kinases than prior art compound PY1”; the “relevant kinases still potently inhibited” value was “TXK, ERBB4, EPHB1, FRK, BRK, EPHA4, ACK1, EGFR, EPHA1 and SIK1; also recorded: reasonably potent against CSF1R”. Also, the “toxicity against the cell lines in the absence of TNF” value in the series with HCT116 and PANC1 is recorded as “essentially non-toxic”.
